Activity calls are given as the source filed them. Rule as the data show it, for most assays here: actives have a measured EC50 and inactives only a lower limit.
What was measured:
[1] = target: T1, Protein skinhead-1 (Caenorhabditis elegans, UniProt P34707); format: functional
T1 sequence (P34707 whole entry): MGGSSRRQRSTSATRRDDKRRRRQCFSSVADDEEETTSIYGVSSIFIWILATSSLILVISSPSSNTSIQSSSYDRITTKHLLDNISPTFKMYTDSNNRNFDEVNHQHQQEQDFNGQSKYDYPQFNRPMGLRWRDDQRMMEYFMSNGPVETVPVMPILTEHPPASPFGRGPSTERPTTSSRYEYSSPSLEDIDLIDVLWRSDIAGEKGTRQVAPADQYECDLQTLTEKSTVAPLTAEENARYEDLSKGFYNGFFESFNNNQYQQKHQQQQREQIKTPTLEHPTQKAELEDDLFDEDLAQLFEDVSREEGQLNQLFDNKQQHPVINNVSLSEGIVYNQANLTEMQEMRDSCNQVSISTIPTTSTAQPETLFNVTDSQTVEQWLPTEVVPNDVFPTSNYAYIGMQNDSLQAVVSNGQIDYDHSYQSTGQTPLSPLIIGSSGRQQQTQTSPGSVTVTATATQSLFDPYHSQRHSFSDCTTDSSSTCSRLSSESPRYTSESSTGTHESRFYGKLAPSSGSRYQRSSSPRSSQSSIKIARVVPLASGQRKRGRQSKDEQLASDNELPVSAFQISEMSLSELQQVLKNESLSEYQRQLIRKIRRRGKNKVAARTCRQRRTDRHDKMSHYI

[2] = Luminescence Cell-Based Dose Confirmation HTS to Identify Activators of 5'UTR Stem-Loop Driven Alpha-Synuclein mRNA Translation in H4 Neuroglioblastoma Cells. [Related pubchem assays: 1829 (Project Summary), 1814 (Primary HTS)]; format: functional
[3] = Luminescence Cell-Based Dose Response HTS to Identify Activators of Luciferase Translation or Activity in H4 […] Cells. [Related pubchem assays: 1829 (Project Summary), 1814 (Primary HTS)]; format: functional
[4] = system: H4; assay: Luminescence Cell-Based Dose Response HTS to Identify Activators of 5'UTR Stem-Loop Driven Prion Protein mRNA Translation in H4 Neuroglioblastoma Cells. [Related pubchem assays: 1829 (Project Summary), 1814 (Primary HTS)]; format: functional; conditions: Homo sapiens
[5] = HEp-2 cell cytotoxicity, dose response, cytotoxicity control for RSV inhibitor project, HTS (AID 2410); format: functional; conditions: human respiratory syncytial virus
[6] = cells; format: functional, cell-based
[7] = cells; format: functional, cell-based; remark: listed apart in the source
[8] = target: T2, Rac GTPase-activating protein 1 (Homo sapiens, UniProt Q9H0H5); assay: MgcRacGAP GTPase-activating activity inhibitors, confirmation, biochemical, ADP Hunter fluorescence, primary and confirmatory (AID 624330); format: functional
T2 sequence (Q9H0H5 whole entry): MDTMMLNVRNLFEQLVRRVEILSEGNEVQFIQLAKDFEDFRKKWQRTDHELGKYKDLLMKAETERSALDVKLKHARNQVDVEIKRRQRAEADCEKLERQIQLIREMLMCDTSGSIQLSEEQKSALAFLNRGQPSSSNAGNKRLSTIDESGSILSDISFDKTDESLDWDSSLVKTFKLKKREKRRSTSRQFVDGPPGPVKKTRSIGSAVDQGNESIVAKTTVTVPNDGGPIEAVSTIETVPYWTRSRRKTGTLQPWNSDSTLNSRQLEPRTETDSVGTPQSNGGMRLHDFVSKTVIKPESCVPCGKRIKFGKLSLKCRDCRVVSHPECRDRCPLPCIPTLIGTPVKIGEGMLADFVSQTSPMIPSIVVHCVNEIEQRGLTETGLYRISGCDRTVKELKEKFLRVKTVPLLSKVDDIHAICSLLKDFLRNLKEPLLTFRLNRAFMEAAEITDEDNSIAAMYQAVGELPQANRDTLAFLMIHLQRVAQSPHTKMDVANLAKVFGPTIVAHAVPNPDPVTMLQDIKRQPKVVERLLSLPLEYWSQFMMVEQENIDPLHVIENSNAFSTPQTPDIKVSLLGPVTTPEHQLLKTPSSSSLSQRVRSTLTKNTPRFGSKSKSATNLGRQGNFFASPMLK

[9] = growth suppression of beta-catenin-knockout colon cells, dose response, cell-based, HCT116, human colon tumor (AID 1045); format: functional;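 also: HCT116 colon tumor cells with beta catenin knocked out; cells exposed to compound for 60 hours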
[10] = target: T3, Corticotropin-releasing factor receptor 2/Corticotropin-releasing factor-binding protein (Homo sapiens, UniProt P24387+Q13324); assay: activators of CRF receptor 2 with binding protein – uHTS hits, confirmation (AID 602473); format: functional; conditions: read-out: EC50_Mean
T3 sequence (Q13324 whole entry): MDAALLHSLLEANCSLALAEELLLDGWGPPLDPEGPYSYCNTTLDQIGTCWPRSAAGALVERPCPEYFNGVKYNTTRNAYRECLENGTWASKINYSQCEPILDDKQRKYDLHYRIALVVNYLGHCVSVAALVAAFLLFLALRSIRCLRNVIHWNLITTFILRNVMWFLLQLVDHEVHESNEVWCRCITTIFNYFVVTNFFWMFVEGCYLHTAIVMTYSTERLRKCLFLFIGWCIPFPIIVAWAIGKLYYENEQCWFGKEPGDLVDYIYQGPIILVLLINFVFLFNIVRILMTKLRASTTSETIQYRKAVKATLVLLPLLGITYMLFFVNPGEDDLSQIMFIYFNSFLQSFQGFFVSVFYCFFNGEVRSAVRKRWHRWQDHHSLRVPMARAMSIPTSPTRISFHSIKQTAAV
T3 sequence (P24387 whole entry): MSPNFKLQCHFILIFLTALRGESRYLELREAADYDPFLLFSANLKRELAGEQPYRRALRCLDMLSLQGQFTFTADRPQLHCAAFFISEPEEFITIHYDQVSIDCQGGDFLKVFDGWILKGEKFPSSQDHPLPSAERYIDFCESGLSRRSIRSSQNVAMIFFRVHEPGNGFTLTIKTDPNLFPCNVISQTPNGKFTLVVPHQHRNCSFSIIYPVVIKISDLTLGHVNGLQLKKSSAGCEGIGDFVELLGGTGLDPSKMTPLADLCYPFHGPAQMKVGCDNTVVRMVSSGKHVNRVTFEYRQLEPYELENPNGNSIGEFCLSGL

[11] = target: T3, Corticotropin-releasing factor receptor 2/Corticotropin-releasing factor-binding protein; assay: Dose Response confirmation of uHTS hits for small molecule antagonists of the CRF-binding protein and CRF-R2 receptor complex.; format: functional; conditions: read-out: IC50_Mean
[12] = target: T4, Heat shock factor protein 1 (Mus musculus, UniProt P38532); assay: inhibition of MG132-induced HSE-luciferase signal, confirmation, cell-based, NIH3T3, luminescence, dose retest (AID 2382); format: functional;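 also: NIH3T3 fibroblasts with HSF1-driven luciferase reporter stressed by proteasome inhibitor MG132; luminescence from HSF1-driven luciferase expression after 8 hours of MG132 stress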
T4 sequence (P38532 whole entry): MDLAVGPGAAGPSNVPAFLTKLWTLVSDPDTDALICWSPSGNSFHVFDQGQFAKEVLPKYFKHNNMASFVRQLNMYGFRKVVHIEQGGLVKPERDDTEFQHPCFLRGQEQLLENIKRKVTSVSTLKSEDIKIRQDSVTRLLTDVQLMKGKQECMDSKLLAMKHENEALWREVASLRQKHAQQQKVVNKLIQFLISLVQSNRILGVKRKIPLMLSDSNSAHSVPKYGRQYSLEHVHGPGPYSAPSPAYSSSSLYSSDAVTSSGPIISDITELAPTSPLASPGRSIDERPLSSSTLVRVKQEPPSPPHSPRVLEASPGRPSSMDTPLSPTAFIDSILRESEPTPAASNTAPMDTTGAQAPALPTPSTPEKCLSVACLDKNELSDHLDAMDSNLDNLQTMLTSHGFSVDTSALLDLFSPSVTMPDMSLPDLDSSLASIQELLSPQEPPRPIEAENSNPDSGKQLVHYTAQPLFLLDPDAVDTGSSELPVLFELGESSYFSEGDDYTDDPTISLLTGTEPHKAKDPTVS

Compound	EC50 [2]	EC50 [3]	EC50 [4]	other results
C#CCN1C(=O)S/C(=C/C=C/c2ccc(N(C)C)cc2)C1=O				IC50 [1]: > 100 µM (inactive)
O=C(c1cnn2c1NC(c1ccco1)CC2C(F)(F)F)N1CCN(c2cccc(Cl)c2)CC1 (centres undefined)	> 120 µM (not active)	> 120 µM (not active)	> 120 µM (not active)	
c1ccc(-c2ccc(OCCOCCn3cncn3)cc2)cc1	30.9 µM (active)	45.9 µM (active)	17.2 µM (inconclusive)	
CCCCCn1cnc2sc(-c3ccccc3)cc2c1=O		2.43 µM (active)	6.94 µM (active)	IC50 [1]: > 100 µM (inactive); CC50 [5]: > 50 µM (active)
CC(C)Oc1cccc(C(=O)Nc2ccc(CN3CCOCC3)cc2)c1				IC50 [1]: 31.1 µM (active)
Cc1cc(C(c2nnnn2Cc2ccccc2)N2CCOCC2)c(C)n1-c1ccc2c(c1)OCO2 (centres undefined)	91.8 µM (active)	> 120 µM (not active)	35.6 µM (active)	
N#C/C(=C\C1CC=CCC1)c1nc2ccccc2[nH]1 (centres undefined)	21.9 µM (active)	26.3 µM (active)	23.7 µM (active)	CC50 [5]: 23.4 µM (active)
O=C(CSc1nc(O)c2ccccc2n1)Nc1ccc(Br)cc1				EC50 [6]: > 350 µM (not active); EC50 [7]: > 350 µM (not active)
COC(=O)c1ccc2nc(-c3ccc(C)cc3)c(Cc3cccc(F)c3)n2c1				IC50 [1]: > 100 µM (inactive)
Cc1cccc(-n2cnc3cc(C(=O)N4CCCCC4)ccc32)c1	17.9 µM (active)	7.6 µM (active)	13.9 µM (active)	
Cc1ccc(Cn2nc(-c3ccccc3)nc2-c2ccccc2)cc1	5.09 µM (active)	20 µM (active)	17.9 µM (active)	
Cc1cn([C@H]2C[C@H](O)[C@@H](CNCC3=Cc4cc(O)ccc4OC3)O2)c(=O)[nH]c1=O				IC50 [8]: 95.9 µM (active)
O=C(/C=C/c1ccco1)Nc1nc(-c2ccccc2)cs1				IC50 [1]: 68.6 µM (inactive)
Fc1ccc(CN2CCN(C(c3ccccc3)c3ccccc3)CC2)cc1				IC50 [8]: 236 µM (active)
CC(C)(C)c1cc(C(=O)N2CCN(c3ncccn3)CC2)ccn1				EC50 [6]: > 350 µM (not active); EC50 [7]: > 350 µM (not active)
COc1ccc(/C=C2\SC(=O)N(CCNC(=O)C3CCN(S(=O)(=O)c4cccs4)CC3)C2=O)cc1	10.2 µM (active)	36.7 µM (active)	19.1 µM (active)	
CN(C)c1ccc(NC(=O)COC(=O)CNC(=O)c2cccs2)cc1				IC50 [8]: 45.6 µM (active)
O=C1/C(=C/c2ccccn2)SC(=S)N1CCc1ccccc1	8.16 µM (active)	10.9 µM (active)	19.4 µM (active)	
Cc1c(C(=O)/C=C/c2cccs2)oc2ccc(F)cc12		0.139 µM (active)	34.1 µM (inconclusive)	IC50 [1]: > 100 µM (inactive)

Compound	EC50 [2]	EC50 [3]	EC50 [4]	other results
COc1ccccc1C(=O)N1CCN(Cc2cccnc2)CC1				IC50 [8]: 101 µM (active)
CCn1cc(Br)c(-c2nc3ccccc3c(=O)n2N)n1	102 µM (active)	8.16 µM (active)	> 120 µM (not active)	
Cc1cc(OC(C)C(=O)NNC(=O)Nc2ccc(F)cc2F)cc(C)c1Cl (centres undefined)				EC50 [6]: > 350 µM (not active); EC50 [7]: > 350 µM (not active)
COCCCNC(=O)/C(C#N)=C/c1c(N2CCN(c3ccc(OC)cc3)CC2)nc2c(C)cccn2c1=O				IC50 [8]: 114 µM (active)
CN(CCOC(=O)CN1C(=O)c2ccccc2C1=O)C1=NS(=O)(=O)c2ccccc21	> 120 µM (not active)	46.8 µM (active)	> 120 µM (not active)	
CCOc1ccccc1N(CC(=O)N/N=C/c1cc(Br)ccc1OC)S(C)(=O)=O				EC50 [6]: > 350 µM (not active); EC50 [7]: > 350 µM (not active)
O=C1N=C(N2CCCCC2)SC1=C1CCCCC1	13.8 µM (active)	5.25 µM (active)	21.5 µM (active)	
COc1ccc(NC2CCCN(C(=O)C3=NNC(=O)CC3)C2)cc1 (centres undefined)				IC50 [8]: 120 µM (active)
CC(=O)Nc1ccc2c(c1Br)Cc1ccccc1-2				IC50 [1]: > 100 µM (inactive)
O=[N+]([O-])c1ccc(COc2ccc(CN3CCCCC3)cc2)cc1				IC50 [1]: 3.46 µM (active)
O=C1/C(=C/c2nc3ccccc3[nH]2)SC(=S)N1c1ccccc1				EC50 [6]: > 350 µM (not active); EC50 [7]: > 350 µM (not active)
CCCCN1C[C@H](c2ccc(Br)cc2)[C@@H](CC(=O)Nc2ccc(Br)cc2)C1=O				IC50 [1]: > 100 µM (inactive)
CC(=O)c1ccc(-n2nncc2-c2ccc([N+](=O)[O-])cc2)cc1				IC50 [1]: > 100 µM (inactive)
O=C(/C=C/c1cccs1)Nc1ccc(N2CCOCC2)c(S(=O)(=O)Nc2ccccc2Cl)c1	12 µM (active)	46.3 µM (active)	22.2 µM (active)	
CCn1c(CNc2ccc(OC)cc2)nnc1SCC(=O)c1ccc(OC)cc1				EC50 [9]: 470 µM (active)
Cc1ccc(C)n1NC(=O)c1ccccc1O				EC50 [10]: > 53 µM (inactive); IC50 [11]: > 47.1 µM (inactive); EC50 [12]: > 195 µM (not active)
COc1ccc(NC2CCCN(C(=O)CCN3CCCO3)C2)cc1 (centres undefined)				IC50 [8]: 128 µM (active)
N#Cc1ccc(CN2CCN(C(=O)c3cc(C4CC4)nn3-c3ccccc3)CC2)cc1				IC50 [1]: 37.5 µM (active)

Source: ChEMBL document CHEMBL1201862, “PubChem BioAssay data set” (2004)
